Source: PubChem BioAssay (NCI)
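Protocol summary: plate cells (96-well), add compound at 5 concentrations, incubate 48 h, interpolate endpoints linearly. TGI denotes the concentration required for complete inhibition of growth.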 Where a SMILES comes first, the peptide text is derived from it.

Legend:
Assay in all cases: DTP human tumour cell line panel, 48 h
[1] = system: 786-0 renal
[2] = system: A498 renal
[3] = system: A549 NSCLC
[4] = system: ACHN renal
[5] = system: BT-549 breast
[6] = system: CAKI-1 renal
[7] = system: CCRF-CEM leukemia
[8] = system: COLO 205 colon
[9] = system: DU-145 prostate
[10] = system: EKVX NSCLC
[11] = system: HCC-2998 colon
[12] = system: HCT-116 colon
[13] = system: HCT-15 colon
[14] = system: HL-60(TB) leukemia
[15] = system: HOP-92 NSCLC
[16] = system: HS 578T breast
[17] = system: HT29 colon
[18] = system: IGROV1 ovarian
[19] = system: K-562 leukemia
[20] = system: KM12 colon
[21] = system: LOX IMVI melanoma
[22] = system: M14 melanoma
[23] = system: MALME-3M melanoma
[24] = system: MCF7 breast
[25] = system: MDA-MB-231 breast
[26] = system: MDA-MB-435
[27] = system: MDA-N
[28] = system: MOLT-4 leukemia
[29] = system: NCI-H226 lung
[30] = system: NCI-H23 lung
[31] = system: NCI-H460 lung
[32] = system: NCI-H522 lung
[33] = system: NCI/ADR-RES ovarian
[34] = system: OVCAR-3 ovarian
[35] = system: OVCAR-4 ovarian
[36] = system: OVCAR-5 ovarian
[37] = system: OVCAR-8 ovarian
[38] = system: PC-3 prostate
[39] = system: RPMI-8226 leukemia
[40] = system: SF-268 CNS
[41] = system: SF-295 CNS
[42] = system: SF-539 CNS
[43] = system: SK-MEL-2 melanoma
[44] = system: SK-MEL-28 melanoma
[45] = system: SK-MEL-5 melanoma
[46] = system: SN12C renal
[47] = system: SNB-19 CNS
[48] = system: SNB-75 CNS
[49] = system: SW-620 colon
[50] = system: T-47D breast
[51] = system: TK-10 renal
[52] = system: U251 CNS
[53] = system: UACC-257 melanoma
[54] = system: UACC-62 melanoma
[55] = system: HOP-62 NSCLC
[56] = system: RXF 393 renal
[57] = system: SK-OV-3 ovarian
[58] = system: SR leukemia
[59] = system: UO-31 renal

C=C(C)C(=O)O[C@H]1CC2=CC(CC(C)=C[C@H]3OC(=O)C(=C)C13)OC2=O (some centres not stated)
TGI [1]: 24.4 µM | TGI [2]: 76 µM | TGI [3]: > 100 µM | TGI [4]: 27.6 µM | TGI [5]: 38.9 µM | TGI [6]: 34.4 µM | TGI [7]: 17.9 µM | TGI [8]: 29.3 µM | TGI [9]: 30.8 µM | TGI [10]: 43.8 µM | TGI [11]: > 100 µM | TGI [12]: 24.2 µM | TGI [13]: 25.6 µM | TGI [14]: 11.8 µM | TGI [15]: 32.4 µM | TGI [16]: > 100 µM | TGI [17]: 43.2 µM | TGI [18]: > 100 µM | TGI [19]: 22.5 µM | TGI [20]: 47.1 µM | TGI [21]: 53.7 µM | TGI [22]: > 100 µM | TGI [23]: 40.7 µM | TGI [24]: 49.1 µM | TGI [25]: 60.8 µM | TGI [26]: > 100 µM | TGI [27]: 89.4 µM | TGI [28]: 40.7 µM | TGI [29]: > 100 µM | TGI [30]: > 100 µM | TGI [31]: > 100 µM | TGI [32]: 17 µM | TGI [33]: > 100 µM | TGI [34]: 70.5 µM | TGI [35]: > 100 µM | TGI [36]: > 100 µM | TGI [37]: > 100 µM | TGI [38]: 53.5 µM | TGI [39]: 9.21 µM | TGI [40]: 68.5 µM | TGI [41]: > 100 µM | TGI [42]: > 100 µM | TGI [43]: 72.4 µM | TGI [44]: 31.2 µM | TGI [45]: > 100 µM | TGI [46]: 51.4 µM | TGI [47]: > 100 µM | TGI [48]: > 100 µM | TGI [49]: 36 µM | TGI [50]: 36.9 µM | TGI [51]: 22.6 µM | TGI [52]: > 100 µM | TGI [53]: 96.3 µM | TGI [54]: 38.8 µM

CC(=O)NC(CO)C(=O)NC(Cc1ccc(O)cc1)C(=O)NCC(N)=O (stereo not drawn) (Ac-Ser-Tyr-Gly-NH2; configuration not given here)
TGI [1]: > 100 µM | TGI [2]: > 100 µM | TGI [3]: > 100 µM | TGI [4]: > 100 µM | TGI [5]: > 100 µM | TGI [6]: > 100 µM | TGI [7]: > 100 µM | TGI [8]: > 100 µM | TGI [9]: > 100 µM | TGI [10]: > 100 µM | TGI [11]: > 100 µM | TGI [12]: > 100 µM | TGI [13]: > 100 µM | TGI [14]: > 100 µM | TGI [55]: > 100 µM | TGI [15]: > 100 µM | TGI [17]: > 100 µM | TGI [18]: > 100 µM | TGI [19]: > 100 µM | TGI [20]: > 100 µM | TGI [21]: > 100 µM | TGI [22]: > 100 µM | TGI [23]: > 100 µM | TGI [24]: > 100 µM | TGI [25]: > 100 µM | TGI [26]: > 100 µM | TGI [27]: > 100 µM | TGI [28]: > 100 µM | TGI [29]: > 100 µM | TGI [30]: > 100 µM | TGI [31]: > 100 µM | TGI [32]: > 100 µM | TGI [33]: > 100 µM | TGI [34]: > 100 µM | TGI [35]: > 100 µM | TGI [36]: > 100 µM | TGI [37]: > 100 µM | TGI [38]: > 100 µM | TGI [39]: > 100 µM | TGI [56]: > 100 µM | TGI [40]: > 100 µM | TGI [41]: > 100 µM | TGI [42]: > 100 µM | TGI [43]: > 100 µM | TGI [44]: > 100 µM | TGI [45]: > 100 µM | TGI [57]: > 100 µM | TGI [46]: > 100 µM | TGI [47]: > 100 µM | TGI [48]: > 100 µM | TGI [58]: > 100 µM | TGI [49]: > 100 µM | TGI [50]: > 100 µM | TGI [51]: > 100 µM | TGI [52]: > 100 µM | TGI [53]: > 100 µM | TGI [54]: > 100 µM | TGI [59]: > 100 µM
